In brackets after ≈: the same amount, converted by molar mass.

Twelve molecules from ChEMBL document CHEMBL3399936, “Selective CB2 receptor agonists. Part 1: the identification of novel ligands through computer-aided drug design (CADD) approaches” (Bioorg Med Chem Lett, 2015) can be followed below.

Data set [1] deals with Cannabinoid receptor 2 (Homo sapiens, UniProt P34972). As to the kind of experiment: Inhibition of human CB2 receptor expressed in CHO cells assessed as inhibition of forskolin-induced cAMP accumulation after 30 mins. Type of data set: functional, cell-based.
Chain of Cannabinoid receptor 2 (P34972 whole entry): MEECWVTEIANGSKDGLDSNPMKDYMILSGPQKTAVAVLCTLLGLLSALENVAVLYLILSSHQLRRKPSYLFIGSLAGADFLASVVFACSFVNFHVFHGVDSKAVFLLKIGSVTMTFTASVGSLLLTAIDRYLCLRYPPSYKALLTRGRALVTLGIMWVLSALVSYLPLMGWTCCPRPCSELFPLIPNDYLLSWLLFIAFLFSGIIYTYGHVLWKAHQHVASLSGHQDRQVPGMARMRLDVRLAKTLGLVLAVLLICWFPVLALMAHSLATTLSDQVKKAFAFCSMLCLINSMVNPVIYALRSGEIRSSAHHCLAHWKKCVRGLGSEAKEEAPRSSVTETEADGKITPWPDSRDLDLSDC
The target in data set [2] is T1, Cannabinoid receptor 1 (Homo sapiens, UniProt P21554). The data set can be described thus: Inhibition of human CB1 receptor expressed in CHO cells assessed as inhibition of forskolin-induced cAMP accumulation after 30 mins. Format: functional, cell-based.
T1 sequence (P21554 whole entry): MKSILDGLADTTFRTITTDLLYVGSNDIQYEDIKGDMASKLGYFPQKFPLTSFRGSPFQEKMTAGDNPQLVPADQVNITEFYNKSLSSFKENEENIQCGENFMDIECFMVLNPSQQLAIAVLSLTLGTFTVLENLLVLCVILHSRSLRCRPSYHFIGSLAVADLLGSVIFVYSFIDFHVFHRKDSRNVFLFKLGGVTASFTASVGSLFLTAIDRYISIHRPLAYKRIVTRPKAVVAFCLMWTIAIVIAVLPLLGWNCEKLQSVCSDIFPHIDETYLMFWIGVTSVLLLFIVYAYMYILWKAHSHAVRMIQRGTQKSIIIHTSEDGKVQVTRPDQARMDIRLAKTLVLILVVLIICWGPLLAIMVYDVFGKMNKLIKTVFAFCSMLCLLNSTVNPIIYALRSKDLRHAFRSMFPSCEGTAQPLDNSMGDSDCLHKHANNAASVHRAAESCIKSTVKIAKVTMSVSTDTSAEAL
The species named for data set [3] is Homo sapiens. As to the kind of experiment: Ratio of EC50 for human CB1 receptor to EC50 for human CB2 receptor.
The nature of data set [4]: Solubility of the compound at pH 7.4 after 16 to 18 hrs by UV spectrophotometry. The following applies: buffer. Format: physicochemical.
A short description of data set [5]: Half life in human liver microsomes at 1 uM by LC/MS/MS analysis. Type of data set: ADME.
Data set [6] concerns the target T1, Cannabinoid receptor 1. The data set can be described thus: Partial agonist activity at human CB1 receptor expressed in CHO cells assessed as cAMP accumulation after 30 mins. Type of data set: functional, cell-based.

`CCCCc1ccc(NC(=O)N2CCN(C(=O)CCC3CCCC3)CC2)cc1`: the concentration for a half-maximal effect (EC50) in data set [1] is greater than 20 nM.
On the same count and under the same terms, in the case of `CC(C)(C)c1cc(NC(=O)N2CC3CC2CN3C(=O)c2ccc(C(F)(F)F)cc2)no1` (stereo not given) it was greater than 20 nM.
Take `CC(C)(C)c1cc(NC(=O)C(C)(C)S(=O)(=O)c2ccc(C(F)(F)F)cc2)no1`: the EC50 in data set [2] is 420 nM; in data set [1], 0.77 nM. Moreover, the Ratio EC50 in data set [3] turned out to be 545.
The corresponding values for `CC(C)(C)c1cc(NC(=O)[C@]2(C)CCCN2c2ccc(C(F)(F)F)cc2)no1` are 15 nM, 0.29 nM and 52.
On to `CC(C)(C)c1cc(NC(=O)[C@@H]2CCCN2c2ncc(C(F)(F)F)cc2Cl)no1`, for which, in data set [2], the EC50 is 7 nM. Also, the Ratio EC50 in data set [3] is 88.
Molecule `CC(C)(C)c1cc(NC(=O)C(C)(C)S(=O)(=O)c2ccc(C(F)(F)F)cn2)no1` came in with a solubility in data set [4] of 12 µg/mL (≈ 28.6 µM). The molecule also gave a half-life at 1 µM in data set [5] of less than 5 min. Also, the EC50 in data set [2] is 420 nM; in data set [1], 3 nM. For the same molecule, in data set [3], the Ratio EC50 is 140.
Take `CC(C)(C)c1cc(NC(=O)[C@H]2CCCN2c2ccc(Cl)cc2)no1`: in data set [6], the Activity was less than 70%.
As for `CC(C)(C)c1cc(NC(=O)[C@]2(C)CCCN2c2ccc(C(F)(F)F)cn2)no1`, the EC50 in data set [2] is 0.5 nM; in data set [1] it was 0.04 nM. For the same molecule, the Ratio EC50 in data set [3] amounted to 12.
As for `O=C(Nc1cc(C(F)(F)F)on1)N1CCCN(C(=O)c2ccc(C(F)(F)F)cn2)CC1`, in data set [4], the solubility came to 0.4 µg/mL (≈ 0.886 µM). This molecule also registered a half-life at 1 µM in data set [5] of 9 min. Further, the EC50 stood at 253 nM in data set [2] and 5 nM in data set [1]. In data set [3], the Ratio EC50 amounted to 50.
Regarding `CC(C)(C)c1cc(NC(=O)[C@]2(C)CCCN2c2ccc(Cl)cc2)no1`, the EC50 in data set [2] was 54 nM. In addition, the Ratio EC50 in data set [3] amounted to 257.
On to `O=C(Nc1cc(C(F)(F)F)on1)N1CCCN(C(=O)c2ccc(C(F)(F)F)cc2)CC1`, for which the figures for the concentration for a half-maximal effect (EC50) in data set [2] and in data set [1] were 1000 nM and 1.4 nM, respectively. Besides, the Ratio EC50 in data set [3] amounted to 714.
On to `CC(C)(C)c1cc(NC(=O)[C@H]2CCCN2c2ccc(C(F)(F)F)cc2)no1`, for which the Activity in data set [6] was less than 70%.
